Source: patent US9670261B2 (Sanofi, priority 2012, dated 2017)
*1 amine or outer side, *2 acyl side, *3 side chain or, on linkers, in order; H or OH if unused. Where a SMILES comes first, the peptide text is derived from it. Side-chain parts run from the residue outwards. [ ]: non-standard residue; d: D form. The star is where a group is joined. γGlu = O=C(O)[C@H](CCC(=O)[*:2])N[*:1]; Palmitoyl = CCCCCCCCCCCCCCCC(=O)*; Aib = CC(C)(N)C(=O)O

How the values were obtained:
[1] = test system: female leptin-receptor deficient diabetic db/db mice; assay: Blood glucose and HbA1c in leptin-receptor deficient diabetic db/db mice (method 3); format: in vivo; settings: single 100 μg/kg s.c., fed db/db mice
Description: Female BKS.Cg-m+/+Leprdb/J (db/db) and BKS.Cg-m+/+Leprdb/+(lean control) mice were obtained from Charles River Laboratories, Germany, at an age of 9-10 weeks. The animals were housed in groups in a specific pathogen-free barrier facility on a 12-h light/dark cycle with free access to water and rodent-standard chow. After 1 week of acclimatization, blood samples were drawn from the tail without anaesthesia and blood glucose (method: d-glucose hexokinase, hemolysate, AU640 Beckman Coulter) and HbA1c level (method: hemolysate, Cobas6000 c501, Roche Diagnostics, Germany) were determined. […] The volume of administration was 5 mL/kg. The animals had access to water and chow during the experiment, food consumption was determined at all time points of blood sampling. […] Blood sampling was performed by tail incision without anaesthesia. […] At the end of the study, blood samples (tail, no anaesthesia) were analyzed for glucose and HbA1c. […] Statistical analyses were performed with Everstat 6.0 by repeated measures two-way ANOVA and Dunnett's post-hoc analyses. Differences versus vehicle-treated db/db control mice were considered statistically significant at the p<0.05 level. […] At predefined time points, more blood samples were taken to measure blood glucose and generate the blood glucose profile over 24 h. […] Blood glucose and HbA1c were determined before start of treatment and at the end of the study after 4 weeks of treatment. […] Before treatment started, no significant differences in blood glucose levels could be detected between db/db groups, only the lean control animals had significant lower glucose levels. During the 4 weeks of treatment, glucose levels increased in the vehicle-treated db/db control group, indicating a worsening of the diabetic situation.

[2] = Pharmacokinetic testing in mice, s.c.; settings: mouse, plasma, sc, 1 mg/kg
Description: Mice were dosed 1 mg/kg subcutaneously (s.c.). The mice were sacrified and blood samples were collected after 0.25, 0.5, 1, 2, 4, 8, 16 and 24 hours post application. Plasma samples were analyzed after protein precipitation via liquid chromatography mass spectrometry (LC/MS). PK parameters and half-life were calculated using WinonLin Version 5.2.1 (non-compartment model).

[3] = target: T1, human GIP receptor (Homo sapiens, UniProt P48546); assay: cAMP response (HTRF) of HEK-293 cells stably expressing human GIP receptor; format: cell-based; settings: Table 7; cAMP formation; read-out: EC50 hGIP R
T1 construct: expressed in transfected cells
T1 sequence (P48546 22-466): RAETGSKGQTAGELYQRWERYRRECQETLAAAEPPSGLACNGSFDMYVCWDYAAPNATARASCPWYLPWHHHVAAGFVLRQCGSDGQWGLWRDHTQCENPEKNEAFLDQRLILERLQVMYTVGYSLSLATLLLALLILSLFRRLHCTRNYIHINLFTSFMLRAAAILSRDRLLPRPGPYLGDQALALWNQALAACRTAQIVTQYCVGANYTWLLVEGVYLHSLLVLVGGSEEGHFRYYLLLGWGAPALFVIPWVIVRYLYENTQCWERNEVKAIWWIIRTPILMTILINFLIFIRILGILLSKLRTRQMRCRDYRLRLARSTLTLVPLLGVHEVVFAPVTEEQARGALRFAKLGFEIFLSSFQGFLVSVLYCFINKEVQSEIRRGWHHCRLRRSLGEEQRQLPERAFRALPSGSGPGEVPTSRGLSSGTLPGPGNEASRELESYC
Description: (§1) cAMP content of cells was determined using a kit from Cisbio Corp. (cat. no. 62AM4PEC) based on HTRF (Homogenous Time Resolved Fluorescence). For preparation, cells were split into T175 culture flasks and grown overnight to near confluency in medium (DMEM/10% FBS). Medium was then removed and cells washed with PBS lacking calcium and magnesium, followed by proteinase treatment with accutase (Sigma-Aldrich cat. no. A6964). Detached cells were washed and resuspended in assay buffer (1×HBSS; 20 mM HEPES, 0.1% BSA, 2 mM IBMX) and cellular density determined. They were then diluted to 400000 cells/ml and 25 μl-aliquots dispensed into the wells of 96-well plates. For measurement, 25 μl of test compound in assay buffer was added to the wells, followed by incubation for 30 minutes at room temperature.

[4] = target: T2, human GLP-1 receptor (Homo sapiens, UniProt P43220); assay: cAMP response (HTRF) of HEK-293 cells stably expressing human GLP-1 receptor; format: cell-based; settings: Table 7; cAMP formation; read-out: EC50 hGLP-1 R
T2 construct: expressed in transfected cells
Description: as §1

T2 sequence (P43220 24-463): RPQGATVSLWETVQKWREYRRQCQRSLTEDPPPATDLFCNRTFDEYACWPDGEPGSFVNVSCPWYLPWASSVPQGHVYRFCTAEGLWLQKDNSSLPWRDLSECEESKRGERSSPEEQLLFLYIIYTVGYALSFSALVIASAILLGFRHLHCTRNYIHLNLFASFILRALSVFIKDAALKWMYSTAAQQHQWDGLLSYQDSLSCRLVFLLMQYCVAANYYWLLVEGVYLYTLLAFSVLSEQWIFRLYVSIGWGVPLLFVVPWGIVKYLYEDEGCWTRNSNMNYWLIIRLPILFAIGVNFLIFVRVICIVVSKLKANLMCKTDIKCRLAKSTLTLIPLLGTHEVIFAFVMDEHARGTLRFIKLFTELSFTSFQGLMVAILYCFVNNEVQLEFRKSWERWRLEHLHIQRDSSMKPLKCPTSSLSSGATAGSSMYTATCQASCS

Row | SMILES | blood glucose compared to db/db control mice, 24 h profile [1] | Cmax [2] [ng/mL] | half-life [2] [h] | EC50 [3] [pM] | EC50 [4] [pM]
1 | CCCCCCCCCCCCCCCC(=O)N[C@@H](CCC(=O)NCCCC[C@H](NC(=O)[C@H](CCC(N)=O)NC(=O)[C@@H](NC(=O)[C@H](CO)NC(=O)[C@H](CC(C)C)NC(=O)[C@H](CC(=O)O)NC(=O)[C@H](CO)NC(=O)[C@@H](NC(=O)[C@H](Cc1ccccc1)NC(=O)[C@@H](NC(=O)CNC(=O)[C@H](CCC(=O)O)NC(=O)C(C)(C)NC(=O)[C@@H](N)Cc1ccc(O)cc1)[C@@H](C)O)[C@@H](C)O)[C@@H](C)CC)C(=O)N[C@@H](CCC(=O)O)C(=O)N[C@@H](CO)C(=O)N[C@@H](CCCNC(=N)N)C(=O)N[C@@H](C)C(=O)N[C@@H](C)C(=O)N[C@@H](CCC(N)=O)C(=O)N[C@@H](CC(=O)O)C(=O)N[C@@H](Cc1ccccc1)C(=O)N[C@H](C(=O)N[C@@H](CCC(=O)O)C(=O)N[C@@H](Cc1c[nH]c2ccccc12)C(=O)N[C@@H](CC(C)C)C(=O)N[C@@H](CCCCN)C(=O)N[C@@H](C)C(=O)NCC(=O)NCC(=O)N1CCC[C@H]1C(=O)N[C@@H](CO)C(=O)N[C@@H](CO)C(=O)NCC(=O)N[C@@H](C)C(=O)N1CCC[C@H]1C(=O)N1CCC[C@H]1C(=O)N1CCC[C@H]1C(=O)N[C@@H](CO)C(N)=O)[C@@H](C)CC)C(=O)O [SEQ ID NO: 10, Y-Aib-E-G-T-F-T-S-D-L-S-I-Q-K(γE-x53)-ESRAAQDFIEWLKAGGPSSGAPPPS-NH2] (H-Y[Aib]EGTFTSDLSIQK([γGlu-Palmitoyl])ESRAAQDFIEWLKAGGPSSGAPPPS-NH2) | significant decrease in blood glucose | 5820 | 2.7 | – | –
2 | CCCCCCCCCCCCCCCC(=O)N[C@@H](CCC(=O)NCCCC[C@H](NC(=O)[C@H](CCC(N)=O)NC(=O)[C@@H](NC(=O)[C@H](CO)NC(=O)[C@H](CC(C)C)NC(=O)[C@H](CC(=O)O)NC(=O)[C@H](CO)NC(=O)[C@@H](NC(=O)[C@H](Cc1ccccc1)NC(=O)[C@@H](NC(=O)CNC(=O)[C@H](CCC(=O)O)NC(=O)C(C)(C)NC(=O)[C@@H](N)Cc1ccc(O)cc1)[C@@H](C)O)[C@@H](C)O)[C@@H](C)CC)C(=O)N[C@@H](CCC(=O)O)C(=O)N[C@@H](CCCCN)C(=O)N[C@@H](CCCNC(=N)N)C(=O)N[C@@H](C)C(=O)N[C@@H](C)C(=O)NC(C)(C)C(=O)N[C@@H](CC(=O)O)C(=O)N[C@@H](Cc1ccccc1)C(=O)N[C@H](C(=O)N[C@@H](CCC(=O)O)C(=O)N[C@@H](Cc1c[nH]c2ccccc12)C(=O)N[C@@H](CC(C)C)C(=O)N[C@@H](CCCCN)C(=O)N[C@@H](CC(N)=O)C(=O)N[C@H](C(=O)NCC(=O)N1CCC[C@H]1C(=O)N[C@@H](CO)C(=O)N[C@@H](CO)C(=O)NCC(=O)N[C@@H](C)C(=O)N1CCC[C@H]1C(=O)N1CCC[C@H]1C(=O)N1CCC[C@H]1C(=O)N[C@@H](CO)C(N)=O)[C@@H](C)O)[C@@H](C)CC)C(=O)O [SEQ ID NO: 27, Y-Aib-E-G-T-F-T-S-D-L-S-I-Q-K(γE-x53)-E-K-R-A-A-Aib-D-F-I-E-W-L-K-N-T-G-P-S-S-G-A-P-P-P-S-NH2] (H-Y[Aib]EGTFTSDLSIQK([γGlu-Palmitoyl])EKRAA[Aib]DFIEWLKNTGPSSGAPPPS-NH2) | – | – | – | 6.7 | 4
3 | CCCCCCCCCCCCCCCC(=O)N[C@@H](CCC(=O)NCCCC[C@H](NC(=O)[C@H](CCC(N)=O)NC(=O)[C@@H](NC(=O)[C@H](CO)NC(=O)[C@H](CC(C)C)NC(=O)[C@H](CC(=O)O)NC(=O)[C@H](CO)NC(=O)[C@@H](NC(=O)[C@H](Cc1ccccc1)NC(=O)[C@@H](NC(=O)CNC(=O)[C@H](CCC(N)=O)NC(=O)C(C)(C)NC(=O)[C@@H](N)Cc1ccc(O)cc1)[C@@H](C)O)[C@@H](C)O)[C@@H](C)CC)C(=O)N[C@@H](CCC(=O)O)C(=O)N[C@@H](CO)C(=O)N[C@@H](CCCNC(=N)N)C(=O)N[C@@H](C)C(=O)N[C@@H](C)C(=O)N[C@@H](CCC(N)=O)C(=O)N[C@@H](CC(=O)O)C(=O)N[C@@H](Cc1ccccc1)C(=O)N[C@H](C(=O)N[C@@H](CCC(=O)O)C(=O)N[C@@H](Cc1c[nH]c2ccccc12)C(=O)N[C@@H](CC(C)C)C(=O)N[C@@H](CCCCN)C(=O)N[C@@H](C)C(=O)NCC(=O)NCC(=O)N1CCC[C@H]1C(=O)N[C@@H](CO)C(=O)N[C@@H](CO)C(=O)NCC(=O)N[C@@H](C)C(=O)N1CCC[C@H]1C(=O)N1CCC[C@H]1C(=O)N1CCC[C@H]1C(=O)N[C@@H](CO)C(N)=O)[C@@H](C)CC)C(=O)O [SEQ ID NO: 32, Y-Aib-Q-G-T-F-T-S-D-L-S-I-Q-K(γE-x53)-ESRAAQDFIEWLKAGGPSSGAPPPS-NH2] (H-Y[Aib]QGTFTSDLSIQK([γGlu-Palmitoyl])ESRAAQDFIEWLKAGGPSSGAPPPS-NH2) | – | 5520 | 2.7 | 7.1 | 8.4
4 | CCCCCCCCCCCCCCCC(=O)N[C@@H](CCC(=O)NCCCC[C@H](NC(=O)[C@H](CCC(N)=O)NC(=O)[C@@H](NC(=O)[C@H](CO)NC(=O)[C@H](CC(C)C)NC(=O)[C@H](CC(=O)O)NC(=O)[C@H](CO)NC(=O)[C@@H](NC(=O)[C@H](Cc1ccccc1)NC(=O)[C@@H](NC(=O)CNC(=O)[C@H](CCC(=O)O)NC(=O)C(C)(C)NC(=O)[C@@H](N)Cc1ccc(O)cc1)[C@@H](C)O)[C@@H](C)O)[C@@H](C)CC)C(=O)N[C@@H](CCC(=O)O)C(=O)N[C@@H](CCCCN)C(=O)N[C@@H](CCCNC(=N)N)C(=O)N[C@@H](C)C(=O)N[C@@H](C)C(=O)NC(C)(C)C(=O)N[C@@H](CCC(=O)O)C(=O)N[C@@H](Cc1ccccc1)C(=O)N[C@H](C(=O)N[C@@H](CCC(=O)O)C(=O)N[C@@H](Cc1c[nH]c2ccccc12)C(=O)N[C@@H](CC(C)C)C(=O)N[C@@H](CCCCN)C(=O)N[C@@H](C)C(=O)NCC(=O)NCC(=O)N1CCC[C@H]1C(=O)N[C@@H](CO)C(=O)N[C@@H](CO)C(=O)NCC(=O)N[C@@H](C)C(=O)N1CCC[C@H]1C(=O)N1CCC[C@H]1C(=O)N1CCC[C@H]1C(=O)N[C@@H](CO)C(N)=O)[C@@H](C)CC)C(=O)O [SEQ ID NO: 36, Y-Aib-E-G-T-F-T-S-D-L-S-I-Q-K(γE-x53)-E-K-R-A-A-Aib-E-F-I-E-W-L-K-A-G-G-P-S-S-G-A-P-P-P-S-NH2] (H-Y[Aib]EGTFTSDLSIQK([γGlu-Palmitoyl])EKRAA[Aib]EFIEWLKAGGPSSGAPPPS-NH2) | – | – | – | 6.4 | –
